The assay addresses T1, 5-HT1A receptor (Rattus norvegicus, UniProt P19327).
T1 construct: from tissue; host or cells: cerebral cortex membranes of male Sprague Dawley rats
T1 sequence (P19327 1-422): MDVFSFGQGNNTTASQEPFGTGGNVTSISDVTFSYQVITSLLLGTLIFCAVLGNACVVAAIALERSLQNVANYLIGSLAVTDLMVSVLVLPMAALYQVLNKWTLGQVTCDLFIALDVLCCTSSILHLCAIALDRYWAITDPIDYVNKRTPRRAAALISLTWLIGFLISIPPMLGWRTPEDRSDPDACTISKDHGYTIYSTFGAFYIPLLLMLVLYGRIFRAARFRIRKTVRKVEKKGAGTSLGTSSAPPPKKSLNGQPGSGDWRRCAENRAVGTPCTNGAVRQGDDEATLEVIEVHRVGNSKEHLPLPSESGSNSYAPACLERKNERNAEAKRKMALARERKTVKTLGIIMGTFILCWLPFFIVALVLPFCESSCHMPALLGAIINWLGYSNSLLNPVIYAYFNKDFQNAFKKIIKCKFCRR
Nature of the assay: Affinity for 5-HT1A receptor: inhibition of [3H]8-OH-DPAT binding to rat cerebral cortex membranes. As to conditions: [3H]8-OH-DPAT (1 nM), 30 min at 25° C., Tris-HCl 50 mM, pH=7.4. The method, then: The affinity of the compounds for serotonergic 5-HT1A receptors is determined by measuring the inhibition of [3H]8-hydroxy-2-(di-n-propylaminotetralin ([3H]8-OH-DPAT) bound to the cerebral cortex of the rat, according to the method of Peroutka and his coworkers [(J. Neurochem., 47, 529 (1986)].
Cerebral cortices of male Sprague Dawley rats are homogenised in Tris-HCl 50 mM, pH=7.4 and centrifuged at 40,000 g for 10 min at 4° C. Pellets are resuspended in the same buffer and incubated for 10 min at 37° C., and the homogenised products are centrifuged again at 40,000 g for 10 min at 4° C.
Competitive inhibition tests of [3H]8-OH-DPAT binding are carried out three times with unlabelled competitors, with concentrations between 100 pM and 100 μM. Cerebral cortex membranes of rats (10 mg wet weight/ml) are incubated with [3H]8-OH-DPAT (1 nM) for 30 min at 25° C. in Tris-HCl 50 mM, pH=7.4 containing 4 mM of CaCl2, […] of paragyline and 0.1% of ascorbic acid.
The bound [3H]8-OH-DPAT is separated from free [3H]8-OH-DPAT by immediate filtration by means of Whatman GF/B glass fibre filters using a Brandel cell recovery device. The filters are washed three times with the same buffer at 0-4° C. and their radioactivity is studied by means of a liquid scintillation spectrometer.
The specific binding is obtained by subtracting the binding determined in the presence of […] of 8-OH-DPAT from the total binding. The characteristics of the binding are analysed by iterative analysis of the non-linear regression by computer, using the Ligand program [Munson and Rodbard, Anal. Biochem., 107, 220 (1980)].

Molecule `COc1ccccc1OCCNCCCCC(=O)NC(C)(C)C` [Compound 1, N-tert-butyl-5-[{2-(2-methoxyphenoxy)ethyl}amino]pentanamide] came in with a Ki of 540 pM. In turn, `COc1ccccc1OCCNCCCCC(=O)NC1CCCCC1` [Compound 2, N-cyclohexyl-5-[{2-(2-methoxyphenoxy)ethyl}amino]pentanamide] registered a Ki of 190 pM.

`COc1ccccc1OCCNCCCCC(=O)NCC(C)(C)C` [Compound 3, N-neopentyl-5-[{2-(2-methoxyphenoxyl)ethyl}amino]pentanamide] registered a Ki of 320 pM. Regarding `COc1ccccc1OCCNCCCCC(=O)NC1CCCC1` [Compound 4, N-cyclopentyl-5-[{2-(2-methoxyphenoxy)ethyl}amino]pentanamide], the Ki was found to be 290 pM. `COc1ccccc1OCCNCCCCC(=O)NC1CCCCCC1` [Compound 5, N-cycloheptyl-5-[{2-(2-methoxyphenoxy)ethyl}amino]pentanamide] displayed a Ki of 98 pM. In the case of `CC(C)(C)CNC(=O)CCCCNCCOc1cccc(NC(N)=O)c1` [Compound 9, N-neopentyl-5-[{2-(3-(aminocarbonylamino)phenoxy)ethyl}-amino]pentanamide], the affinity, expressed as Ki, was 410 pM.

In the case of `NC(=O)Nc1cccc(OCCNCCCCC(=O)NC2CCCCCC2)c1` [Compound 10, N-cyclcoheptyl-5-[{2-(3-(aminocarbonylamino)phenoxy)ethyl}amino]pentanamide], the affinity corresponds to a Ki of 130 pM. `CC(=O)Nc1cccc(OCCNCCCCC(=O)NC2CCCCC2)c1` [Compound 11, N-cyclohexyl-5-[{2-(3-(methylcarbonylamino)phenoxy)ethyl}amino]pentanamide] yielded a Ki of 370 pM.

For the molecule `CC(=O)Nc1cccc(OCCNCCCCC(=O)NCC(C)(C)C)c1` [Compound 12, N-neopentyl-5-[{2-(3-(methylcarbonylamino)phenoxy)ethyl}-amino]pentanamide], the Ki was 880 pM.

With `COC(=O)Nc1cccc(OCCNCCCCC(=O)NCC(C)(C)C)c1` [Compound 13, N-neopentyl-5-[{2-(3-(methoxycarbonylamino)phenoxy)ethyl}amino]pentanamide], the affinity, expressed as Ki, was 840 pM.

As usually defined, the Ki is a dissociation constant, usually derived from enzyme kinetics or from competition with a known ligand.

Source of the values: US5998666A, “Phenoxyethylamine derivatives, method of preparation, application as medicine and pharmaceutical compositions containing same” (Societe de Conseils de Recherches Et d'Applications …, priority 1996, dated 1999).
